Data reported in PMC7284416, “The Product Specificities of Maize Terpene Synthases TPS4 and TPS10 Are Determined Both by Active Site Amino Acids and Residues Adjacent to the Active Site” (Plants, 2020).
Where a chain is given by its changes, count along the chain named.

B1: TPS4 (tps4-B73) (Zea mays) (protein)
chain: SSTFHPSLWGSFFLTYQPPTAPQRANMKERAEVLRERVRKVLKGSTTDQLPETVNLILTLQRLGLGYYYENEIDKLLHQIYSNSDYNVKDLNLVSQRFYLLRKNGYDVPSDVFLSFKTEEGGFACAAADTRSLLSLYNAAYLRKHGEEVLDEAISSTRLRLQDLLGRLLPESPFAKEVSSSLRTPLFRRVGILEARNYIPIYETEATRNEAVLELAKLNFNLQQLDFCEELKHCSAWWNEMIAKSKLTFVRDRIVEEYFWMNGACYDPPYSLSRIILTKITGLITIIDDMFDTHGTTEDCMKFAEAFGRWDESAIHLLPEYMKDFYILMLETFQSFEDALGPEKSYRVLYLKQAMERLVELYSKEIKWRDDDYVPTMSEHLQVSAETIATIALTCSAYAGMGDMSIRKETFEWALSFPQFIRTFGSFVRLSNDVVSTKREQTKDHSPSTVHCYMKEHGTTMDDACEKIKELIEDSWKDMLEQSLALKGLPKVVPQLVFDFSRTTDNMYRDRDALTSSEALKEMIQLLFVEPIPE
notes: expressed in E. coli BL21(DE3) from pHIS8-3, N-terminal His8 tag kept, Ni-NTA purified; forward primer starts the ORF at codons for SSTFHPSL, native C-terminus FVEPIPE

Assays:
TPS4 (tps4-B73) [1] = molecular target: T1, TPS4 (tps4-B73) (Zea mays, UniProt Q6JD73, I411F/R442K, form not given); assay: [[…]-3H]FPP turnover, pentane-extracted products, scintillation counting; format: biochemical; conditions: 10 mM MgCl2, 10 mM Mopso pH 7.0, 1 mM DTT, 10% glycerol, 30 °C; labelled compound; read-out: TPS4-c17 R442K + I411F
T1 construct: expressed in E. coli BL21(DE3) from pHIS8-3, N-terminal His8 tag kept, Ni-NTA purified; forward primer starts the ORF at codons for SSTFHPSL, native C-terminus FVEPIPE
T1 sequence (Q6JD73 21-554 I411F/R442K): B1 chain with I391F, R422K

TPS10 (tps10-B73) = molecular target: T2, TPS10 (tps10-B73) (Zea mays, UniProt Q2NM15); assay: as above; format: biochemical; conditions: 10 mM MgCl2, 10 mM Mopso pH 7.0, 1 mM DTT, 10% glycerol, 30 °C; labelled compound
T2 construct: expressed in E. coli BL21(DE3) from pHIS8-3 (NcoI/EcoRI), His tag kept, Ni-NTA purified; printed forward primer codes for MPPPS at the N-terminus
T2 sequence (Q2NM15 1-533): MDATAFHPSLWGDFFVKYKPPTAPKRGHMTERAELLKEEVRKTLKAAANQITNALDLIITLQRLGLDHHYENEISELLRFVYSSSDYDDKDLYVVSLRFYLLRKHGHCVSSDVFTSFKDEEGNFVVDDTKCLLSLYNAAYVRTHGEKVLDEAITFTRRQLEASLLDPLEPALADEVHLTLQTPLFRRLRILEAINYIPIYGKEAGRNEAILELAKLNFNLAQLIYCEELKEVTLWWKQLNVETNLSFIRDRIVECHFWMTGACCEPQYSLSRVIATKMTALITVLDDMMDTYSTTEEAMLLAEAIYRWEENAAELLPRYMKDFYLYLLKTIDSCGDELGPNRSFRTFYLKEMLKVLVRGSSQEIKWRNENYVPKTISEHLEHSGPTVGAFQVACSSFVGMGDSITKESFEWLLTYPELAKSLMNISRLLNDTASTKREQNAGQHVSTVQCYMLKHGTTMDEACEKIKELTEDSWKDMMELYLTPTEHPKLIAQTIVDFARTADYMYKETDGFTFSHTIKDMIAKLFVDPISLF

TPS4 (tps4-B73) [2] = molecular target: T3, TPS4 (tps4-B73) (Zea mays, UniProt Q6JD73); assay: as above; format: biochemical; conditions: 10 mM MgCl2, 10 mM Mopso pH 7.0, 1 mM DTT, 10% glycerol, 30 °C; labelled compound; read-out: TPS4-c17
T3 construct: expressed in E. coli BL21(DE3) from pHIS8-3, N-terminal His8 tag kept, Ni-NTA purified; forward primer starts the ORF at codons for SSTFHPSL, native C-terminus FVEPIPE
T3 sequence (Q6JD73 21-554): B1 chain

purified protein = substrate: CC(C)=CCC/C(C)=C/CC/C(C)=C/CO[P@@](=O)(O)OP(=O)(O)O; assay: purified protein; format: biochemical, Zea mays; conditions: 10 mM MgCl2, 10 mM Mopso pH 7.0, 1 mM DTT, 10% glycerol, 30 °C, labelled compound

| Molecule | Km (TPS4 (tps4-B73) [1]) [µM] | Km (TPS10 (tps10-B73)) [µM] | Km (TPS4 (tps4-B73) [2]) [µM] | Km (purified protein) [µM] | kcat (purified protein) [s⁻¹] |
| --- | --- | --- | --- | --- | --- |
| CC(C)=CCC/C(C)=C/CC/C(C)=C/CO[P@@](=O)(O)OP(=O)(O)O [(E,E)-farnesyl diphosphate] | 2.3 ± 0.3 | 3.2 ± 0.5 | 2.1 ± 0.3 |  |  |
| B1 |  |  |  | 3.8 ± 0.5 | 0.0105 ± 0.0006 |
